ChEMBL document CHEMBL1157539, “Thousands of chemical starting points for antimalarial lead identification” (Nature, 2010)

Tested on: Plasmodium falciparum
Assay: GSK_TCMDC: Inhibition of Plasmodium falciparum 3D7 in whole erythrocytes, using parasite LDH activity as an index of growth.
Type: functional, organism-based
Details: Plasmodium falciparum, 3D7

SMILES	XC50 [nM]
Cc1ccc(O)c(-c2cc(C(=O)Nc3ccc(S(=O)(=O)N4CCCCCC4)cc3)[nH]n2)c1	711
CCNc1cc(C(=O)N[C@@H](Cc2ccccc2)[C@H](O)CNC2CCCCC2)cc(N2CCCCS2(=O)=O)c1	170
O=S(=O)(Nc1cc2c(cc1O)CCNCC2)c1ccc(-c2ccc(Cl)cc2)cc1	980
OC(c1ccc2ccccc2c1)C1CN(CCc2ccccc2)CCC1(O)c1ccccc1 (centres undefined)	554
N#Cc1cccc(C(=O)Nc2ccc(-c3ccc(CN4CCCC4)cc3)cc2)c1	1150
COc1ccc(Nc2ncc3c(-c4cccc(NC(=O)Cc5ccc(O)cc5)c4)c[nH]c3n2)cc1OC	570
CC(C)(CNCc1cc(Cl)cc(Cl)c1)c1nc(-c2ccnc(N)n2)c(-c2ccc(Cl)c(O)c2)[nH]1	1010
COc1ccc(CNC2Cc3ccccc3C2)cc1-c1ccc(S(=O)(=O)NCc2cccnc2)s1	1110
CCn1c(-c2nonc2N)nc2c(-c3cccc(NC(=O)Nc4cccc(C(F)(F)F)c4)c3)ncc(OCCCN)c21	969
Cn1c(N)c(C(=O)CSc2ncc(-c3ccc(F)cc3)n2Cc2ccccc2)c(=O)n(C)c1=O	569
CC(C)C1C(O)=C(c2ccc3ccccc3c2)C(=O)N1CC1CCCCC1 (centres undefined)	1130
Cc1cccc2nc(-c3ccc(-c4ccc(NC(=O)C(=O)c5cccn5C)cc4)cc3)[nH]c12	819
OCCN1CCN(c2ccc(Nc3ccnc4cc5ccccc5cc34)cc2)CC1	41
O=C(NCC1CCC(C(=O)NCc2cccc3ccccc23)CC1)c1ccc(O)c(-c2ccc(Cl)c(Cl)c2)c1 (centres undefined)	749
COc1ccc(C2NCCc3c2[nH]c2ccccc32)cc1CN1CCN(c2ccc(F)cc2)CC1 (centres undefined)	776
CC[C@H]1CN2CC[C@@H]1C[C@H]2[C@H](O)c1ccnc2ccc(OC)cc12	225
O=C(/C=C/c1ccc(Cl)c(Cl)c1)NCCCCCN1CC[C@H](NC(=O)/C=C/c2ccccc2)C1	1000
CC(C)(C)c1ccc(NC(=O)c2cccc(CN3CCN(Cc4cccc(O)c4)CC3)c2)cc1	1400
O=C(NCCCCCN1CCC(c2c[nH]c3ccccc23)CC1)Nc1ccc(Br)cc1	925
CC(=NNC(S)=NCCc1ccccc1)c1ccccn1	218
CCCCCCCc1c(C)nc2cc(OC)ccc2c1O	62.8
COc1ccc(-c2cnc3ccc(NC4CCC(O)CC4)nn23)cn1 (centres undefined)	715
COc1ccc2c(OC)ccc(CNCCCCCCNCc3ccc(OC)c4ccc(OC)cc34)c2c1	399
Cc1ccc(F)cc1-c1cc(N2CCCN(C(=O)c3ccc(Br)o3)CC2)ncn1	1430
CC(C)(CNC(=O)C1CCN(Cc2ccc(Cl)cc2)CC1)c1nc(-c2ccc(Cl)c(O)c2)c(-c2ccncc2)[nH]1	623

SMILES	XC50 [nM]
NC1=NC(c2ccccc2)(c2ccccc2)C(=O)N1CCCCc1ccccn1	1260
Cc1c(-c2cccc(Br)c2)[nH]c2nc(N)nc(N)c12	743
COCCOc1ccc(C(F)(F)F)cc1NC(=O)Cc1c(F)cccc1Cl	1000
CC1(C)NC(N)=NC(=N)N1OCCCOc1ccccc1Cl	3.2
O=C(NCCCCCN1CCC(c2ccc(O)cc2)CC1)c1ccc(-c2ccccc2)cc1	929
OCCN1CCN(Cc2cccc(-c3ccc(-c4nc5cc(C(F)(F)F)ccc5[nH]4)s3)c2)CC1	86.7
CO/C(=C\C=C\c1cc2cc(Cl)c(Cl)cc2[nH]1)C(=O)NC1CCN(CCCc2ccccc2)CC1	767
O=S(=O)(c1cccc2cccnc12)N1CCN(C2CCCCC2)CC1	765
CC1(C)NC(N)=NC(=N)N1OCCCOc1ccccc1N	3.2
COc1ccc(CNCc2ccsc2)cc1-c1ccc(OC)c(S(=O)(=O)NCCN2CCCC2)c1	917
CC[C@H]1CN2CC[C@H]1C[C@H]2[C@H](O)c1cc(-c2cccc(C)c2)nc2ccc(OC)cc12	163
O=[N+]([O-])c1ccc(N/C(=N\c2ccccc2Br)NC2CCCc3ccccc32)c(O)c1 (centres undefined)	919
O=C(Nc1cccc(-c2cccc(-c3nc4cc(C(F)(F)F)ccc4[nH]3)c2)c1)c1cccnc1Cl	657
O=C(NC1CC1)c1ccc(N2CCC(COc3cccc(F)c3)CC2)nc1	1240
CN1CCN(CCCCCNc2c3ccccc3nc3ccccc23)CC1	741
O=C(Nc1ccc(Cn2ncc(N3CCCNCC3)c(Cl)c2=O)cc1)Nc1cccc(SC(F)(F)F)c1	675
Cc1cc(Nc2cccc(C#N)c2)nc(Nc2ccccc2C)n1	861
Cc1ccc2[nH]c3c(NCCN(C)C)ncnc3c2c1	838
Oc1cccc(Nc2nc(NCc3ccccc3)c3ccccc3n2)c1	41.3
Cn1ccnc1CNC(=O)c1ccc(-c2cccc(-c3nc4cc(C(F)(F)F)ccc4[nH]3)c2)cc1	723
COc1ccc(NC(=O)Nc2ccc(-c3ccncc3)c(C(F)(F)F)c2)cc1N1CCN(C)CC1	763
O=C(O)c1cc(C(F)(F)F)co1	825
O=C(NCCc1ccccc1)c1cc(-c2cccnc2)cnc1NCC1CC1	847
CNC(=O)CC(=O)NCCc1ccc(Cl)cc1	811
